The record followed here is US20140163044A1, “Compound Chemical Medicine Acting on Respiratory Disease, Preparation Process and Use Thereof” (HUNAN JIUDIAN PHARMACEUTICAL CO., LTD., priority 2011, published 2014).

Test [1] deals with guinea pigs. Kind of test: Antitussive effect in guinea pigs (induced cough 1 h or 4 h after oral administration). It is filed as in vivo. To be noted: for Effect on latent period of cough and cough times (in words): all dose groups; for Cough times before administration (in 5 min) / Latent period of cough / cough count: oral; for Cough times before administration (in 5 min): baseline before administration. The source says: The pharmacodynamic test for the pharmaceutical composition of the present invention: • 1. Studies on the Antitussive Effect
Medicines used in the test:
Test medicine: self-made tablets of the pharmaceutical composition comprising levodropropizine and carbocisteine by the inventors
Positive control medicine: levodropropizine tablets and carbocisteine tablets
150 guinea pigs (half male and half female) with a body mass of 300±25 g are taken and evenly divided into 15 groups, with 10 in each group. The administration group for the tablet of the present invention is divided into high dose group, medium dose group and low dose group, and the tablets are orally administered respectively; the administration groups for the positive control medicine levodropropizine is also divided into high dose group, medium dose group and low dose group. Each dose group is divided into two groups, respectively the group inducing cough at the first hour or the fourth hour after administration.

In test [2] the test system is outpatients or inpatients with cough. Put plainly: Trials for observing the clinical effect of the tablet in patients with cough. The class given is in vivo. The following applies: 100 cases per group, oral, one tablet 3 times a day, 5-day course; for Efficacy: Ineffective: cough not improved or aggravated; for Efficacy: Improved: cough reduced 3 to 2 points or 2 to 1 points; for Efficacy: Effective: cough reduced to 1 point from 3 points; for Efficacy: Clinically controlled: symptoms disappeared completely. The protocol: Trials for observing the clinical effect of the tablet of the present invention was conducted in the People's Hospital of Yongshun County, Hunan Province.
300 outpatients or inpatients with cough caused by acute upper respiratory tract infection, acute tracheitis and bronchitis, community-acquired pneumonia, and acute exacerbation of chronic bronchitis were randomly divided into a treatment group […], 100 patients for each group. Medicines were administered following the double-blind double-dummy positive medicine parallel control method. The tablets of the present invention, the control medicine levodropropizine tablets or carbocisteine tablets were taken by each group, respectively. Each group orally takes the tablets 3 times a day, one tablet (including analog tablet) each time, for a 5-day course of treatment. Other antitussive or expectorant medicine was stopped during the administration. The patients' conventional indicators such as blood pressure, pulse rate, body temperature, respiration, etc.; symptoms of cough; chest x-ray; blood and urine routine tests; liver and kidney functions; adverse reaction records and electrocardiogram were recorded.
Criteria for evaluating the efficacy are as follows: clinically controlled: symptoms disappeared completely; effective: symptoms of cough reduced to 1 point from 3 points; improved: symptoms of cough reduced to 2 points from 3 points or reduced to 1 points from 2 points; ineffective: symptoms of cough were not improved or aggravated.

Where [3] appears, read: 60 mg/kg, four hours after administration.
The mark [4] stands for this setting: 60 mg/kg, one hour after administration.
Where [5] appears, read: 30 mg/kg, four hours after administration.
[6] abbreviates: 30 mg/kg, one hour after administration.
[7] abbreviates: 120 mg/kg, four hours after administration.
Setting [8] is: 120 mg/kg, one hour after administration.

With `N[C@@H](CSCC(=O)O)C(=O)O` [Carbocisteine tablet, carbocisteine], the “Effect on latent period of cough and cough times (in words)” value in test [1] was “no obviously effect on prolonging the latent period of cough and reducing the cough times”. Also, in test [1] (60 mg/kg group, 1 h group), the “Cough times before administration (in 5 min)” value amounted to 25.24 ± 4.53 in 5 min. Moreover, the “Cough times before administration (in 5 min)” value in test [1] (60 mg/kg group, 4 h group) amounted to 26.04 ± 4.37 in 5 min. Moreover, in test [1] (setting [3]), the “Latent period of cough” value is 32.56 ± 5.17 s and the cough count came to 20 ± 4.24. For the same molecule, in test [1] (setting [4]), the “Latent period of cough” value is 31.28 ± 6.42 s and the cough count was found to be 21.1 ± 3.98. Moreover, in test [2], the Effective rate worked out at 86%, the “Efficacy: Ineffective” value was 14 cases, the “Efficacy: Improved” value amounted to 40 cases and the “Efficacy: Effective” value is recorded as 18 cases. Besides, in test [2], the “Efficacy: Clinically controlled” value was 28 cases.

Take `OC[C@@H](O)CN1CCN(c2ccccc2)CC1` [Levodropropizine tablet, levodropropizine]: the “Effect on latent period of cough and cough times (in words)” value in test [1] is “effects of prolonging latent period of cough and reducing cough times”. In addition, the “Cough times before administration (in 5 min)” value is given as 25.14 ± 4.37 in 5 min in test [1] (30 mg/kg group, 1 h group); 25.74 ± 3.71 in 5 min in test [1] (30 mg/kg group, 4 h group); 25.41 ± 5.26 in 5 min in test [1] (60 mg/kg group, 1 h group); 25.89 ± 4.06 in 5 min in test [1] (60 mg/kg group, 4 h group); 25.18 ± 5.31 in 5 min in test [1] (120 mg/kg group, 1 h group); 26.27 ± 3.98 in 5 min in test [1] (120 mg/kg group, 4 h group). Further, the “Latent period of cough” value in test [1] (setting [5]) came to 36.34 ± 4.68 s; in test [1] (setting [6]), 38.16 ± 5.88 s; in test [1] (setting [3]) it was 40.27 ± 5.29 s; in test [1] (setting [4]) it was 42.38 ± 5.98 s; in test [1] (setting [7]) it was 42.18 ± 3.18 s; in test [1] (setting [8]), 49.57 ± 6.87 s. Also, the cough count in test [1] (setting [5]) is 19.4 ± 5.03; in test [1] (setting [6]), 19.1 ± 4.15; in test [1] (setting [3]), 17.2 ± 3.45; in test [1] (setting [4]), 17.6 ± 3.97; in test [1] (setting [7]), 15.1 ± 3.97; in test [1] (setting [8]), 14.2 ± 4.25. In addition, the Effective rate in test [2] stood at 92%. In addition, the “Efficacy: Ineffective” value in test [2] is 8 cases. Besides, the “Efficacy: Improved” value in test [2] stood at 17 cases. Further, the “Efficacy: Effective” value in test [2] came to 15 cases. The “Efficacy: Clinically controlled” value in test [2] worked out at 60 cases.
